Laboratory results from patent US8119621B2, “Tetrahydro-cyclopentyl pyrazole cannabinoid modulators” (Janssen Pharmaceutica N.V., priority 2005, dated 2012).
Several values for one entry are separate records, joined by “and”; a condition that tells them apart may be missing. Identical values can stand only once. Like-named read-outs stand apart in the source and are kept apart here.

Columns and labels:
[1] = molecular target: T1, human CB1 receptor (Homo sapiens, UniProt P21554); assay: Binding assay for CB1 agonists or inverse agonists ([3H]-CP-55,940 displacement, SK-N-MC membranes); settings: for inhibition at 0.25 µM / inhibition at 1 µM / inhibition at 0.2 µM: read-out: CB1 receptor binding percent inhibition; for inhibition at 0.2 µM: test concentration 0.2 μM (footnote 2)
T1 construct: expressed in transfected cells; host or cells: SK-N-MC cells, stably transfected with pcDNA3 CB-1 (human); semi-purified membrane pellet
T1 sequence (P21554 whole entry): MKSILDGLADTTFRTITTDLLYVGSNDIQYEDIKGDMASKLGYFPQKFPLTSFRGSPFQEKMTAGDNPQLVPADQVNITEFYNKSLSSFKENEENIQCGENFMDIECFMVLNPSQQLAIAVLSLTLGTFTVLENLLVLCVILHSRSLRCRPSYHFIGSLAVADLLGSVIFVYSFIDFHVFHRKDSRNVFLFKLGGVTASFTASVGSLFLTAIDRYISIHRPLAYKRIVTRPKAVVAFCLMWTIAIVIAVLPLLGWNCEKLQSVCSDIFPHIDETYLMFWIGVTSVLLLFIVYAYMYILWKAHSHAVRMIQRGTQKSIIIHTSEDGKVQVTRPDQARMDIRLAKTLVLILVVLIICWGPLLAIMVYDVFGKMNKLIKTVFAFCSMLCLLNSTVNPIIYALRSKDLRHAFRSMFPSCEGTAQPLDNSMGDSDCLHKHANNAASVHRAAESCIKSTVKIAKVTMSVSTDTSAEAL
Protocol: (§1) The human CB1 and CB2 receptors were stably expressed in SK-N-MC cells transfected with pcDNA3 CB-1 (human) or pcDNA3 CB-2 (human). The cells were grown in T-180 cell culture flasks under standard cell culture conditions at 37° C. in a 5% CO2 atmosphere. The cells were harvested by trysinization and homogenized in a homogenization buffer (10 mM Tris, 0.2 mM MgCl2, 5 mM KCl, with protease inhibitors aprotinin, leupeptin, pepstatin A and bacitracin) and centrifuged (2000 g). The supernatant was then centrifuged in 2M sucrose (31,300 g) to produce a semi-purified membrane pellet. The pellet was resuspended in homogenization and stored at −80° C.
(§2) On the day of the assay, the pellet was thawed on ice and diluted in assay buffer (50 mM Tris-HCl, 5 mM MgCl2, 2.5 mM EDTA, 0.5 mg/mL fatty acid free bovine serum albumin, pH 7.5). […] The plate was covered and incubated for 90 minutes at 30° C. The contents were then aspirated onto a Packard Unifilter GF/C filter bottom plate prewet with 0.5% polyethyleneimine. The wells of the polypropylene plate were rinsed and aspirated seven times with a 0.9% saline-0.5% Tween 20 solution. The Unifilter plate was dried, a scintillation cocktail was added to each well and the counts representing binding were quantitated in a TopCount scintillation counter.
(§3) For compounds tested, an IC50 binding value was obtained from percent inhibition studies in which various test concentrations were used. The binding value was calculated by linear regression.

[2] = molecular target: T1, human CB1 receptor; assay: Functional cell-based assay, CB1 receptor mediated change in CRE β-gal expression (adenylate cyclase activity); settings: for CB1 Receptor Functional Activity (change in functional activity): one compound concentration, vehicle treated cell = 100%
Description: The CB1 and CB2 receptors are G-protein coupled receptors (GPCR), which influence cell function via the Gi-protein. These receptors modulate the activity of intracellular adenylate cyclase, which in turn produces the intracellular signal messenger cyclic-AMP (cAMP).
At baseline, or during non-ligand bound conditions, these receptors are constitutively active and tonically suppress adenylate cyclase activity. The binding of an agonist causes further receptor activation and produces additional suppression of adenylate cyclase activity. The binding of an inverse agonist inhibits the constitutive activity of the receptors and results in an increase in adenylate cyclase activity.
Test compounds were evaluated in SK-N-MC cells which, using standard transfection procedures, were stably transfected with human cDNA for pcDNA3-CRE β-gal and pcDNA3 CB1 receptor (human) or pcDNA3 CB2 receptor (human). By expressing CRE β-gal, the cells produced β-galactosidase in response to CRE promoter activation by cAMP. Cells expressing CRE β-gal and either the human CB1 or CB2 receptor will produce less β-galactosidase when treated with a CB1/CB2 agonist and will produce more β-galactosidase when treated with a CB1/CB2 inverse agonist.
The cells were grown in 96-well plates under standard cell culture conditions at 37° C. in a 5% CO2 atmosphere. After 3 days, the media was removed and a test compound in media (wherein the media was supplemented with 2 mM L-glutamine, […] sodium pyruvate, 0.1% low fatty acid FBS (fetal bovine serum) and antibiotics) was added to the cell. The plates were incubated for 30 minutes at 37° C. and the plate cells were then treated with forskolin over a 4-6 hour period, then washed and lysed. The β-galactosidase activity was quantitated using commercially available kit reagents (Promega Corp. Madison, Wis.) and a Vmax Plate Reader (Molecular Devices, Inc).
The change in β-galactosidase activity was determined by setting a vehicle treated cell's activity value at 100% and expressing the β-galactosidase activity measured in a corresponding compound treated cell as a percent of the vehicle treated cell activity.
The EC50 value for functional activity for compounds tested was calculated by linear regression and was obtained from studies in which varying compound concentrations were used.
Where an EC50 value was not obtained for a test compound, the value shown (in %) represents change in functional activity and was obtained from a study in which one compound concentration was used.

[3] = molecular target: T2, human CB2 receptor (Homo sapiens, UniProt P34972); assay: Binding assay for CB2 agonists or inverse agonists ([3H]-CP-55,940 displacement, SK-N-MC membranes); settings: for inhibition at 0.25 µM / inhibition at 0.2 µM: read-out: CB2 receptor binding percent inhibition
T2 construct: expressed in transfected cells; host or cells: SK-N-MC cells, stably transfected with pcDNA3 CB-2 (human); semi-purified membrane pellet
T2 sequence (P34972 whole entry): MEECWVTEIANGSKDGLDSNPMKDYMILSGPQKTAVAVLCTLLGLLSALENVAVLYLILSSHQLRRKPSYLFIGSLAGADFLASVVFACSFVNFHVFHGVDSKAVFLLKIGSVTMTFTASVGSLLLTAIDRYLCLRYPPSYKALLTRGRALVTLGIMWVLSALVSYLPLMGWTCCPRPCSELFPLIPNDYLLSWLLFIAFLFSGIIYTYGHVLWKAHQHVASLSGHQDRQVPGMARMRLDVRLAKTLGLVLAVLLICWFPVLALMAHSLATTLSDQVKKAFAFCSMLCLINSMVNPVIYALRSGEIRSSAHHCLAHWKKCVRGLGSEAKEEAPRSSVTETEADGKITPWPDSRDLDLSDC
Protocol: as §1, §2, §3

[4] = test concentration 0.25 μM (footnote 3)
[5] = test concentration 0.2 μM (footnote 2)

## C[C@H](NS(=O)(=O)/C=C/c1nn(-c2ccc(F)cc2F)c2c1CCC2Cc1cccc(F)c1)c1ccccc1 (stereo partly drawn) [Cpd 1, (2E)-2-[1-(2,4-difluoro-phenyl)-6-(3-fluoro-benzyl)-1,4,5,6-tetrahydro-cyclopentapyrazol-3-yl]-ethenesulfonic acid [(1S)-1-phenyl-ethyl]-amide]
[1]
  inhibition at 0.25 µM: 5%
[2]; CB1 receptor functional agonist EC50, SK-N-MC cells, CRE β-gal, functional agonist
  EC50: 40 nM
[3]
  inhibition at 0.25 µM: 14%

## O=S(=O)(/C=C/c1nn(-c2ccc(F)cc2F)c2c1CCC2Cc1cccc(F)c1)NN1CCOCC1 (centres unmarked) [Cpd 2, (2E)-2-[1-(2,4-difluoro-phenyl)-6-(3-fluoro-benzyl)-1,4,5,6-tetrahydro-cyclopentapyrazol-3-yl]-ethenesulfonic acid morpholin-4-ylamide]
[1]; [4]
  inhibition at 0.25 µM: 0%
[2]
  CB1 Receptor Functional Activity (change in functional activity): 58%
[3]; [4]
  inhibition at 0.25 µM: 21%

## O=S(=O)(/C=C/c1nn(-c2ccc(F)cc2F)c2c1CCC2Cc1cccc(F)c1)NN1CCCCC1 (centres unmarked) [Cpd 3, (2E)-2-[1-(2,4-difluoro-phenyl)-6-(3-fluoro-benzyl)-1,4,5,6-tetrahydro-cyclopentapyrazol-3-yl]-ethenesulfonic acid piperidin-1-ylamide]
[1]; [4]
  inhibition at 0.25 µM: 22%
[2]
  EC50: 5600 nM
[3]; [4]
  inhibition at 0.25 µM: 0%

## C[C@@H](NS(=O)(=O)/C=C/c1nn(-c2ccc(F)cc2F)c2c1CCC2Cc1cccc(F)c1)c1ccccc1 (stereo partly drawn) [Cpd 4, (2E)-2-[1-(2,4-difluoro-phenyl)-6-(3-fluoro-benzyl)-1,4,5,6-tetrahydro-cyclopentapyrazol-3-yl]-ethenesulfonic acid [(1R)-1-phenyl-ethyl]-amide]
[1]
  inhibition at 0.25 µM: 24%
[2]
  CB1 Receptor Functional Activity (change in functional activity): 34%
[3]
  inhibition at 0.25 µM: 17%

## CC12CCC(C1)C(C)(C)[C@H]2NC(=O)c1nn(-c2ccc(F)cc2F)c2c1CCC2Cc1cccc(F)c1 (stereo partly drawn) [Cpd 7, 1-(2,4-difluoro-phenyl)-6-(3-fluoro-benzyl)-1,4,5,6-tetrahydro-cyclopentapyrazole-3-carboxylic acid [(2S)-1,3,3-trimethyl-bicyclo[2.2.1]hept-2-yl]-amide]
[1]
  inhibition at 0.25 µM: 60%
[3]
  inhibition at 0.25 µM: 70%

## C[C@@H](NS(=O)(=O)/C=C/c1nn(-c2ccc(Cl)cc2Cl)c2c1CCC2Cc1cccc(Cl)c1)C1CCCCC1 (stereo partly drawn) [Cpd 9, (2E)-2-[6-(3-chloro-benzyl)-1-(2,4-dichloro-phenyl)-1,4,5,6-tetrahydro-cyclopentapyrazol-3-yl]-ethenesulfonic acid [(1R)-1-cyclohexyl-ethyl]-amide]
[1]; [4]
  inhibition at 0.25 µM: 44%
[3]; [4]
  inhibition at 0.25 µM: 18%

## O=S(=O)(/C=C/c1nn(-c2ccc(Cl)cc2Cl)c2c1CCC2Cc1cccc(Cl)c1)NN1CCCCC1 (centres unmarked) [Cpd 10, (2E)-2-[6-(3-chloro-benzyl)-1-(2,4-dichloro-phenyl)-1,4,5,6-tetrahydro-cyclopentapyrazol-3-yl]-ethenesulfonic acid piperidin-1-ylamide]
[1]; test concentration 1 μM (footnote 1)
  inhibition at 1 µM: 18%

## C[C@H](NS(=O)(=O)/C=C/c1nn(-c2ccc(Cl)cc2Cl)c2c1CCC2Cc1cccc(Cl)c1)c1ccccc1 (stereo partly drawn) [Cpd 11, (2E)-2-[6-(3-chloro-benzyl)-1-(2,4-dichloro-phenyl)-1,4,5,6-tetrahydro-cyclopentapyrazol-3-yl]-ethenesulfonic acid [(1S)-1-phenyl-ethyl]-amide]
[1]; [4]
  inhibition at 0.25 µM: 27%

## O=C(N[C@@H]1c2ccccc2C[C@@H]1O)c1nn(-c2ccc(F)cc2F)c2c1CCC2Cc1cccc(F)c1 (stereo partly drawn) [Cpd 12, 1-(2,4-difluoro-phenyl)-6-(3-fluoro-benzyl)-1,4,5,6-tetrahydro-cyclopentapyrazole-3-carboxylic acid [(1R,2S)-2-hydroxy-indan-1-yl]-amide]
[1]
  IC50: 90 nM
  inhibition at 0.25 µM: 63%
[3]; [4]
  CB2 receptor binding percent inhibition: ^(3) 31%

## O=C(c1nn(-c2ccc(F)cc2F)c2c1CCC2Cc1cccc(F)c1)N1CCN(c2ccccc2)CC1 (centres unmarked) [Cpd 17, [1-(2,4-difluoro-phenyl)-6-(3-fluoro-benzyl)-1,4,5,6-tetrahydro-cyclopentapyrazol-3-yl]-(4-phenyl-piperazin-1-yl)-methanone]
[1]
  inhibition at 1 µM: 35%
[2]; CB1 Receptor Functional Inverse Agonist EC50, SK-N-MC cells, CRE β-gal, forskolin
  EC50: 400 nM and 100 nM

## O=C(NN1CCOCC1)c1nn(-c2ccc(F)cc2F)c2c1CCC2Cc1cccc(F)c1 (centres unmarked) [Cpd 22, 1-(2,4-difluoro-phenyl)-6-(3-fluoro-benzyl)-1,4,5,6-tetrahydro-cyclopentapyrazole-3-carboxylic acid morpholin-4-ylamide]
[1]; [4]
  inhibition at 0.25 µM: 14%
[3]; [4]
  inhibition at 0.25 µM: 0%

## O=C(c1nn(-c2ccc(F)cc2F)c2c1CCC2Cc1cccc(F)c1)N1CCOCC1 (centres unmarked) [Cpd 23, [1-(2,4-difluoro-phenyl)-6-(3-fluoro-benzyl)-1,4,5,6-tetrahydro-cyclopentapyrazol-3-yl]-morpholin-4-yl-methanone]
[1]; [4]
  inhibition at 0.25 µM: 0%
[3]; [4]
  inhibition at 0.25 µM: 0%

## O=C(N[C@H](CO)c1ccccc1)c1nn(-c2ccc(F)cc2F)c2c1CCC2Cc1cccc(F)c1 (stereo partly drawn) [Cpd 24, 1-(2,4-difluoro-phenyl)-6-(3-fluoro-benzyl)-1,4,5,6-tetrahydro-cyclopentapyrazole-3-carboxylic acid [(1S)-2-hydroxy-1-phenyl-ethyl]-amide]
[1]
  inhibition at 0.2 µM: 0%
[3]; [5]
  inhibition at 0.2 µM: 0%

## O=C(N[C@@H](CO)Cc1ccccc1)c1nn(-c2ccc(F)cc2F)c2c1CCC2Cc1cccc(F)c1 (stereo partly drawn) [Cpd 25, 1-(2,4-difluoro-phenyl)-6-(3-fluoro-benzyl)-1,4,5,6-tetrahydro-cyclopentapyrazole-3-carboxylic acid [(1R)-1-benzyl-2-hydroxy-ethyl]-amide]
[1]
  inhibition at 0.2 µM: 23%
[3]; [5]
  inhibition at 0.2 µM: 31%

## O=C(N[C@@H](CCl)c1ccccc1)c1nn(-c2ccc(F)cc2F)c2c1CCC2Cc1cccc(F)c1 (stereo partly drawn) [Cpd 26, 1-(2,4-difluoro-phenyl)-6-(3-fluoro-benzyl)-1,4,5,6-tetrahydro-cyclopentapyrazole-3-carboxylic acid [(1R)-2-chloro-1-phenyl-ethyl]-amide]
[1]
  inhibition at 0.2 µM: 24%
[3]; [5]
  inhibition at 0.2 µM: 32%

## O=C(N[C@H](CCl)Cc1ccccc1)c1nn(-c2ccc(F)cc2F)c2c1CCC2Cc1cccc(F)c1 (stereo partly drawn) [Cpd 27, 1-(2,4-difluoro-phenyl)-6-(3-fluoro-benzyl)-1,4,5,6-tetrahydro-cyclopentapyrazole-3-carboxylic acid [(1S)-1-benzyl-2-chloro-ethyl]-amide]
[1]
  inhibition at 0.2 µM: 14%
[3]; [5]
  inhibition at 0.2 µM: 22%

## O=C(NN1CCCCC1)c1nn(-c2ccc(Cl)cc2Cl)c2c1CC/C2=C\c1ccc(F)cc1 [Cpd 28, (6E)-1-(2,4-dichloro-phenyl)-6-(4-fluoro-benzylidene)-1,4,5,6-tetrahydro-cyclopentapyrazole-3-carboxylic acid piperidin-1-ylamide]
[1]
  IC50: 60 nM
[1]; 0.2 µM
  CB1 receptor binding percent inhibition: 0.06, ^(2) 68%
[3]; [5]
  CB2 receptor binding percent inhibition: ^(2) 4%
